Source: ChEMBL document CHEMBL1201862, “PubChem BioAssay data set” (2004)
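Growth conditions: 96-well plates. Treatment: test compound, 48 hours, 5 concentrations. Analysis: linear interpolation between bracketing concentrations; unreached endpoints set to highest concentration. Abbreviation: GI50, concentration required for 50% inhibition of growth.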 Active and inactive are the calls of the source. Rule as the data show it: active = GI50 up to about 1.1 µM and inactive = higher.

Columns and labels:
Assay in all cases: NCI tumour cell line growth inhibition, 48 h
786-0 = test system: 786-0
A498 = test system: A498
A549 = test system: A549
ACHN = test system: ACHN
BT-549 = test system: BT-549
CAKI-1 = test system: CAKI-1
CCRF-CEM = test system: CCRF-CEM
COLO 205 = test system: COLO 205
DU-145 = test system: DU-145
EKVX = test system: EKVX
HCC 2998 = test system: HCC 2998
HCT-116 = test system: HCT-116
HCT-15 = test system: HCT-15
HL-60 = test system: HL-60
HOP-62 = test system: HOP-62
HOP-92 = test system: HOP-92
HT-29 = test system: HT-29
Hs-578T = test system: Hs-578T
IGROV-1 = test system: IGROV-1
K562 = test system: K562
KM12 = test system: KM12
LOX IMVI = test system: LOX IMVI
M14 = test system: M14
MCF7 = test system: MCF7
MDA-MB-231 = test system: MDA-MB-231
MDA-MB-435 = test system: MDA-MB-435
MDA-N = test system: MDA-N
MOLT-4 = test system: MOLT-4
Malme-3M = test system: Malme-3M
NCI-H226 = test system: NCI-H226
NCI-H23 = test system: NCI-H23
NCI-H460 = test system: NCI-H460
NCI-H522 = test system: NCI-H522
NCI/ADR-RES = test system: NCI/ADR-RES
OVCAR-3 = test system: OVCAR-3
OVCAR-4 = test system: OVCAR-4
OVCAR-5 = test system: OVCAR-5
OVCAR-8 = test system: OVCAR-8
PC-3 = test system: PC-3
RPMI-8226 = test system: RPMI-8226
RXF 393 = test system: RXF 393
SF-268 = test system: SF-268
SF-295 = test system: SF-295
SF-539 = test system: SF-539
SK-MEL-28 = test system: SK-MEL-28
SK-MEL-2 = test system: SK-MEL-2
SK-MEL-5 = test system: SK-MEL-5
SK-OV-3 = test system: SK-OV-3
SN12C = test system: SN12C
SNB-19 = test system: SNB-19
SNB-75 = test system: SNB-75
SR = test system: SR
SW-620 = test system: SW-620
T47D = test system: T47D
TK-10 = test system: TK-10
U-251 = test system: U-251
UACC-257 = test system: UACC-257
UACC-62 = test system: UACC-62
UO-31 = test system: UO-31

Question: With `c1ccc2c(c1)N=c1cc3c(cc1N2)=NC12CCCCC1CC1=C(CCCC1)N32` (stereo not given) as the compound, how does the GI50 (786-0) read?
Answer: 2.89 µM (inactive)

Question: And the GI50 (A498)?
Answer: 6.52 µM (inactive)

Question: And the GI50 (A549)?
Answer: 3.61 µM (inactive)

Question: What about the GI50 (ACHN) of the same compound?
Answer: 2.81 µM (inactive)

Question: And the GI50 (BT-549)?
Answer: 2.61 µM (inactive)

Question: And the GI50 (CAKI-1)?
Answer: 6.58 µM (inactive)

Question: And the GI50 (CCRF-CEM)?
Answer: 2.12 µM (inactive)

Question: What about the GI50 (COLO 205) of the same compound?
Answer: 1.79 µM (inactive)

Question: And the GI50 (DU-145)?
Answer: > 10 µM (inactive)

Question: What about the GI50 (EKVX) of the same compound?
Answer: 4.53 µM (inactive)

Question: And the GI50 (HCC 2998)?
Answer: 6.76 µM (inactive)

Question: What about the GI50 (HCT-116) of the same compound?
Answer: 3.24 µM (inactive)

Question: What about the GI50 (HCT-15) of the same compound?
Answer: 5.82 µM

Question: What about the GI50 (HL-60) of the same compound?
Answer: 3.04 µM (inactive)

Question: And the GI50 (HOP-62)?
Answer: 6.53 µM (inactive)

Question: And the GI50 (HOP-92)?
Answer: 4.46 µM (inactive)

Question: And the GI50 (HT-29)?
Answer: 3.18 µM (inactive)

Question: And the GI50 (Hs-578T)?
Answer: 3.82 µM (inactive)

Question: And the GI50 (IGROV-1)?
Answer: 3.4 µM (inactive)

Question: What about the GI50 (K562) of the same compound?
Answer: 2.2 µM (inactive)

Question: And the GI50 (KM12)?
Answer: 2.37 µM (inactive)

Question: And the GI50 (LOX IMVI)?
Answer: 3.57 µM (inactive)

Question: What about the GI50 (M14) of the same compound?
Answer: 2.52 µM (inactive)

Question: What about the GI50 (MCF7) of the same compound?
Answer: 3.3 µM (inactive)

Question: And the GI50 (MDA-MB-231)?
Answer: 4.16 µM (inactive)

Question: What about the GI50 (MDA-MB-435) of the same compound?
Answer: 1.88 µM (inactive)

Question: What about the GI50 (MDA-N) of the same compound?
Answer: 2.21 µM (inactive)

Question: What about the GI50 (MOLT-4) of the same compound?
Answer: 2.6 µM (inactive)

Question: And the GI50 (Malme-3M)?
Answer: 2.17 µM (inactive)

Question: What about the GI50 (NCI-H226) of the same compound?
Answer: 2.31 µM (inactive)

Question: And the GI50 (NCI-H23)?
Answer: 4.56 µM (inactive)

Question: And the GI50 (NCI-H460)?
Answer: 6.17 µM (inactive)

Question: What about the GI50 (NCI-H522) of the same compound?
Answer: 4.19 µM (inactive)

Question: What about the GI50 (NCI/ADR-RES) of the same compound?
Answer: 4.57 µM (inactive)

Question: And the GI50 (OVCAR-3)?
Answer: 1.74 µM (inactive)

Question: And the GI50 (OVCAR-4)?
Answer: 2.15 µM (inactive)

Question: And the GI50 (OVCAR-5)?
Answer: 5.36 µM (inactive)

Question: And the GI50 (OVCAR-8)?
Answer: 3.21 µM (inactive)

Question: What about the GI50 (PC-3) of the same compound?
Answer: 2.76 µM (inactive)

Question: What about the GI50 (RPMI-8226) of the same compound?
Answer: 2.07 µM (inactive)

Question: And the GI50 (RXF 393)?
Answer: 1.39 µM (inactive)

Question: And the GI50 (SF-268)?
Answer: 4.55 µM (inactive)

Question: What about the GI50 (SF-295) of the same compound?
Answer: 9.04 µM (inactive)

Question: And the GI50 (SF-539)?
Answer: 3.4 µM (inactive)

Question: What about the GI50 (SK-MEL-28) of the same compound?
Answer: 3.3 µM (inactive)

Question: What about the GI50 (SK-MEL-2) of the same compound?
Answer: 3.44 µM (inactive)

Question: And the GI50 (SK-MEL-5)?
Answer: 1.81 µM (inactive)

Question: What about the GI50 (SK-OV-3) of the same compound?
Answer: > 10 µM (inactive)

Question: What about the GI50 (SN12C) of the same compound?
Answer: 2.36 µM (inactive)

Question: What about the GI50 (SNB-19) of the same compound?
Answer: 5.25 µM (inactive)

Question: And the GI50 (SNB-75)?
Answer: 2.59 µM (inactive)

Question: And the GI50 (SR)?
Answer: 0.425 µM (active)

Question: What about the GI50 (SW-620) of the same compound?
Answer: 5.47 µM (inactive)

Question: And the GI50 (T47D)?
Answer: 3.94 µM (inactive)

Question: And the GI50 (TK-10)?
Answer: 5.02 µM (inactive)

Question: What about the GI50 (U-251) of the same compound?
Answer: 5.16 µM (inactive)

Question: And the GI50 (UACC-257)?
Answer: 2.03 µM (inactive)

Question: What about the GI50 (UACC-62) of the same compound?
Answer: 3.32 µM (inactive)

Question: What does the source list for `CN(C)CCCNC(=O)c1c(O)c2ccccc2n(C)c1=O`?
Answer: GI50 (786-0): 65.3 µM (inactive); GI50 (A498): > 100 µM (inactive); GI50 (A549): 82.2 µM (inactive); GI50 (ACHN): 43.8 µM (inactive); GI50 (BT-549): 70 µM (inactive); GI50 (CAKI-1): 41.4 µM (inactive); GI50 (CCRF-CEM): 43.1 µM (inactive); GI50 (COLO 205): 39.5 µM (inactive); GI50 (DU-145): > 100 µM (inactive); GI50 (EKVX): > 100 µM (inactive); GI50 (HCC 2998): 82.2 µM (inactive); GI50 (HCT-116): 44.1 µM (inactive); GI50 (HCT-15): 51.1 µM; GI50 (HL-60): 36.5 µM (inactive); GI50 (HOP-62): 36.3 µM (inactive); GI50 (HOP-92): 14.3 µM (inactive); GI50 (HT-29): 55.6 µM (inactive); GI50 (Hs-578T): > 100 µM (inactive); GI50 (IGROV-1): > 100 µM (inactive); GI50 (K562): 79.3 µM (inactive); GI50 (KM12): > 100 µM (inactive); GI50 (LOX IMVI): 30.6 µM (inactive); GI50 (MCF7): 43.9 µM (inactive); GI50 (MDA-MB-231): 86.5 µM (inactive); GI50 (MDA-MB-435): 61.8 µM (inactive); GI50 (MDA-N): 64.1 µM (inactive); GI50 (MOLT-4): 44.5 µM (inactive); GI50 (Malme-3M): 72.4 µM (inactive); GI50 (NCI-H226): 67 µM (inactive); GI50 (NCI-H23): > 100 µM (inactive); GI50 (NCI-H460): 42 µM (inactive); GI50 (NCI-H522): 61.8 µM (inactive); GI50 (NCI/ADR-RES): 41.2 µM (inactive); GI50 (OVCAR-3): > 100 µM (inactive); GI50 (OVCAR-4): 78.3 µM (inactive); GI50 (OVCAR-5): 63 µM (inactive); GI50 (OVCAR-8): 49.4 µM (inactive); GI50 (PC-3): 67.6 µM (inactive); GI50 (RPMI-8226): 73.8 µM (inactive); GI50 (RXF 393): 35.5 µM (inactive); GI50 (SF-268): 49.8 µM (inactive); GI50 (SF-295): 48.5 µM (inactive); GI50 (SF-539): 78.3 µM (inactive); GI50 (SK-MEL-28): 74.6 µM (inactive); GI50 (SK-MEL-2): 64.1 µM (inactive); GI50 (SK-MEL-5): 53.7 µM (inactive); GI50 (SK-OV-3): > 100 µM (inactive); GI50 (SN12C): 67.1 µM (inactive); GI50 (SNB-75): 63.7 µM (inactive); GI50 (SR): 41.5 µM (inactive); GI50 (SW-620): 54 µM (inactive); GI50 (T47D): 71.3 µM (inactive); GI50 (TK-10): 67.3 µM (inactive); GI50 (U-251): 39.5 µM (inactive); GI50 (UACC-257): 67.5 µM (inactive); GI50 (UACC-62): 64.9 µM (inactive); GI50 (UO-31): 9.27 µM (inactive)
